Source: ChEMBL document CHEMBL5728321, “Therapeutically active compounds and their methods of use” (2021)

Test: In Vitro Assays for IDH1m (R132H or R132C) Inhibitors: In the primary reaction, the reduction of α-KG acid to 2-HG is accompanied by a concomitant oxidation of NADPH to NADP. The amount of NADPH remaining at the end of the reaction time is measured in a secondary diaphorase/resazurin reaction in which the NADPH is consumed in a 1:1 molar ratio with the conversion of resazurin to the highly fluorescent resorufin. […] The mixture of compound, enzyme, and cofactor is pre-incubated at room temperature for 1 hr prior to the addition of alpha-ketoglutarate. To perform the secondary reaction, 10 uL of 1× buffer containing 36 μg/ml diaphorase and 30 mM resazurin is added to the primary reaction and incubated for a further 5 minutes at 25° C. Florescence is read on a Spectramax platereader at Ex 544 Em 590. Compounds or compound dilutions are prepared in 100% DMSO concentration and diluted 1:50 into the final reaction. IDH1 wt/IDH1 R132C is assayed under similar conditions except that 1× Buffer is 50 mM K2HPO4, pH 6.5; 10 mM MgCl2; 10% glycerol; 0.03% (w/v) bovine serum albumin and final concentrations are 0.4 ug/mL (4.3 nM) IDH1 wt/IDH1 R132C heterodimer, 0.02 mM alpha-ketoglutarate, 4 uM NADPH, and either 300 μM NADP (saturated) or 30 μM NADP (without saturation). IC50s are determined.IDH1 or IDH2 wildtype (wt) and mutant heterodimers are expressed and purified by methods known in the art. For example, IDH1wt/R132m heterodimer is expressed and purified as follows. Co-expression of IDH1wt-his and IDH1R132C-flag is carried out in sf9 insect cells. Cells (25 g) are resuspended in 250 ml of 50 mM Tris, 500 mM NaCl, pH7.4, at 4° C. with stirring. Cells are disrupted with 4 passes through an M-Y110 Micro fluidizer (Microfluidics) set to 500 psi, and then centrifuged at 22,000 rcf for 20 min at 4° C. The supernatant is harvested and loaded at 15 cm/h on a Histrap FF 5*1 ml column (GE) which is equilibrated with 50 mM Tris, 500 mM NaCl, pH7.4. Host cell contaminants are removed by washing the column with equilibration buffer followed by equilibration buffer containing 20 mM imidazole and 60 mM imidazole to baseline. IDH1wt-his homodimer and IDH1wt-his/IDH1R132C-flag are eluted by equilibration buffer containing 250 mM imidazole. Fractions eluted by 250 mM imidazole are pooled together and loaded at 15 cm/h onto a column pre-packed with 10 ml ANTI-FLAG® M2 Affinity Gel (Sigma), the column is equilibrated with 50 mM Tris, 500 mM NaCl, pH7.4. After washing with equilibration buffer, IDH1wt-his/IDH1R132C-flag heterodimer is eluted by equilibration buffer containing flag peptide (0.2 mg/ml). Aliquots of IDH1wt-his/IDH1R132C-flag are flash frozen in liquid N2 and stored at −80° C. Same conditions are used for the purification of IDH1wt-his/IDH1R132H-flag.

Row | SMILES | IC50
1 | N#CC1(c2cc(Nc3nc(NC4CCC(F)(F)CC4)nc(-c4cccc(C(F)(F)F)n4)n3)ccn2)CC1 | < 50 nM
2 | N#CC1(c2cc(Nc3nc(NCC(F)(F)F)nc(-c4cccc(C(F)(F)F)n4)n3)ccn2)CC1 | in the range around 75 nM
3 | N#CC1(c2cc(Nc3nc(NC4CCC(F)(F)C4)nc(-c4cccc(C(F)(F)F)n4)n3)ccn2)CC1 (centres undefined) | < 50 nM
4 | N#CC1(c2cc(Nc3nc(NC4CC5(C4)CC(F)(F)C5)nc(-c4cccc(C(F)(F)F)n4)n3)ccn2)CC1 | in the range around 75 nM
